For the assay, the system named is poliovirus type 1 (Mahoney strain). It counts as cell-based. As to conditions: 0.7% strength formaldehyde.

Like-named read-outs stand apart in the source and are kept apart here.

Consider `C=O` [formaldehyde], for which the virus concentration runs as follows: (exposure time 5 min) 1.05e+06 mL⁻¹; (exposure time 15 min) 1000 mL⁻¹; (exposure time 60 min) at most 500 mL⁻¹.

These data come from patent US8221733B2, “Virucidal disinfectant” (priority 2002, dated 2012).
